# Target: T1, human mGluR5d (Homo sapiens, UniProt P41594)
# T1 construct: expressed in transfected cells
# Experiment: FLIPR assay of [Ca2+]i mobilization (Group I receptor antagonist activity)
# Type: cell-based
# Conditions: cells expressing human mGluR5d; antagonist block of agonist challenge
# Procedure: For FLIPR analysis, cells expressing human mGluR5d as described in WO97/05252 were seeded on collagen coated clear bottom 96-well plates with black sides and analysis of [Ca^2+]i mobilization was done 24 h after seeding.
# FLIPR experiments were done using a laser setting of 0.800 W and a 0.4 second CCD camera shutter speed. Each FLIPR experiment was initiated with 160 μl of buffer present in each well of the cell plate. After each addition of the compound, the fluorescence signal was sampled 50 times at 1 second intervals followed by 3 samples at 5 second intervals. Responses were measured as the peak height of the response within the sample period. EC50 and IC50 determinations were made from data obtained from 8-point concentration response curves (CRC) performed in duplicate. Agonist CRC were generated by scaling all responses to the maximal response observed for the plate. […]
# FLIPR experiments were done using a laser setting of 0.800 W and a 0.4 second CCD camera shutter speed with excitation and emission wavelengths of 488 nm and 562 nm, respectively. […] After each addition the fluorescence signal was sampled 50 times at 1 second intervals followed by 3 samples at 5 second intervals. Responses were measured as the peak height of the response within the sample period. […]
# T1 sequence (P41594 21-942 isoform P41594-3 limits assumed): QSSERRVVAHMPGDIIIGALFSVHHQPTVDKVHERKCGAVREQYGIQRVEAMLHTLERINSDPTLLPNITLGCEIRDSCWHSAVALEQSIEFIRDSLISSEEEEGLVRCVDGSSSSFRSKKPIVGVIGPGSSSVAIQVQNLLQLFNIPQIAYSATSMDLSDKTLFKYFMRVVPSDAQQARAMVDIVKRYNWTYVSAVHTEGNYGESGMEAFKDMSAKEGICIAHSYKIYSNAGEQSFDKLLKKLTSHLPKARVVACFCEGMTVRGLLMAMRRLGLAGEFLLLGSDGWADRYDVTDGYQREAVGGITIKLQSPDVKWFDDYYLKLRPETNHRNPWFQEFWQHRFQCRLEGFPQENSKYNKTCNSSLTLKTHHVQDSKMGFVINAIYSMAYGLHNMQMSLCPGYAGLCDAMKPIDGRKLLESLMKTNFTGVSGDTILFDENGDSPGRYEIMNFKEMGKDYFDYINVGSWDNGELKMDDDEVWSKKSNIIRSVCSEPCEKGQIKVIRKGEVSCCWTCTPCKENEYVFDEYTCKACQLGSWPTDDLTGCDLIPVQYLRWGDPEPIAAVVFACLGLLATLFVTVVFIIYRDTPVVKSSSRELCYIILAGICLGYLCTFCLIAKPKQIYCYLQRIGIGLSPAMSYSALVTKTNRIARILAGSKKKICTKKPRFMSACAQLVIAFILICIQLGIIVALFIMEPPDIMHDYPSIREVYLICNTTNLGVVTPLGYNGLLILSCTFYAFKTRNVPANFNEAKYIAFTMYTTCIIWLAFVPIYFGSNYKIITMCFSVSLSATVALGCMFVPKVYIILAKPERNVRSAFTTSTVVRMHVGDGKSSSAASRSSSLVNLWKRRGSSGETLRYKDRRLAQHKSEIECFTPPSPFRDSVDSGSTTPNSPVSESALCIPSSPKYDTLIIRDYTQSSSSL
row,IC50,SMILES
1,199 nM,"Cn1c(-c2ccc(OC(F)F)cc2)nnc1N1CCOCC1c1nc(-c2cccc(Cl)c2)no1 (centres unmarked) [3-[3-(3-Chloro-phenyl)-[1,2,4]oxadiazol-5-yl]-4-[5-(4-difluoromethoxy-phenyl)-4-methyl-4H-[1,2,4]triazol-3-yl]-morpholine]"
2,40 nM,"Cn1c(-c2ccncc2)nnc1N1CCCCC1c1nnn(-c2cccc(Cl)c2)n1 (centres unmarked) [4-(5-{2-[2-(3-chlorophenyl)-2H-tetrazol-5-yl]piperidin-1-yl}-4-methyl-4H-1,2,4-triazol-3-yl)pyridine]"
